Measured values as given in patent US20110257215A1, “NOVEL CO-CRYSTAL OF TIOTROPIUM BROMIDE” (Boehringer Ingelheim Pharma GmbH CO.KG, priority 2006, published 2011).

Settings: solid crystalline form; no method or figures given

Question: Which hygroscopical behaviour does the source give for C[N+]1(C)C2CC(OC(=O)C(O)(c3cccs3)c3cccs3)CC1C1OC12.NC(N)=O.[Br-] (stereo not shown) [tiotropium bromide-urea co-crystal] here?
Answer: only very little hygroscopical behaviour
